Source: patent US20260317367A1, “SALTS INCLUDING CRYSTALLINE SALTS OF 25-HYDROXY-CHOLEST-5-EN-3-SULFATE AND METHODS FOR PREPARING SAME” (Durect Corporation, priority 2022, published 2026)
“Also recorded” adds a separate entry of the source. Structures can show the parent of a compound that is named as a salt. Blank lines part the entries; values can stand above or below the compound they belong to.

How the values were obtained:
Format in all cases: physicochemical
[1] = Solubility of 25HC3S salts after one day at room temperature (HPLC, as free acid); conditions: one day; for Solubility in FaSSGF: Fasted State Simulated Gastric Fluid, pH 1.6, room temperature, LOD 0.0007 mg/mL
Procedure: These fluids were prepared per the instruction listed by Biorelevant (Biorelevant.com). Each buffer concentrate was diluted with water and mixed well. FaSSIF, FeSSIF, FaSSGF powder was added to each buffer and mixed to completely dissolve the powder. Buffers were stored at room temperature and used within 48 hours of preparation.
25HC3S salts were weighed in 8 mL or 4 mL glass vials with Teflon coated screw caps. Aliquots of each solvent were added to each sample and vortexed for about one minute until excess solid remained. Samples were placed on shaker at room temperature with 210 motion per minute shaking.
After one day, samples were pulled and checked if excess solid was present. About 1.5 mL aliquot of each sample was centrifuged at 12000 rpm for 12 to 15 minutes. […] Aliquots of the top clear solution of each centrifuged sample in MeOH, EtOH, IPA and ACN were diluted with diluent (water:MeOH 95:5) and assayed by HPLC. Samples of the salts in aqueous media were assayed by HPLC without dilution.
All solubility sample solutions of 25HC3S salts were determined using HPLC. A linear standard curve was constructed using standards with concentration between 11 μg/mL to 1.5 mg/mL as free acid forcing the curve to origin. Solubilities are reported as mg/mL free acid 25HC3S. Detection limit (LOD) of the HPLC method was calculated as 0.0007 mg/mL.

[2] = Solid-state chemical stability of 25HC3S salts at 2-8° C., 60° C. and 80° C. (HPLC assay and degradation products); conditions: for % Impurities, Total / % Impurities, 25-HC: ND = Not Detected; for % Impurities, 25-HC: 25-Hydroxy-Cholesterol; for % Recovery: vs 2-8° C.; for Stability after 1 week at 60° C. (in words): 1 week (after 3 weeks at 2-8° C.)
Procedure: Approximately 25 mg of each crystalline 25HC3S salt was added to 20 mL glass vials and each powder weight was recorded. Four vials were prepared for each salt and stored at 2-8° C. or 80° C. according to Table B2. The samples were scheduled initially to pull for testing at 3 weeks and 6 weeks' time points.
For those […] salts, the remaining vials stored at 2-8° C. for 3 weeks were allocated for storage at 60° C. for 1 week. Additional stability data was generated according to Table B3.
Based on the molecular weights, and expected UV response factors of each salt used in this study, the expected analytical sample concentrations were within the range of the 25HC3S sodium reference standards (0.75 mg/mL to 1.25 mg/mL as 25HC3S sodium salt). However, due to the lower-than-expected purity of the 25HC3S benzathine salt, an additional standard was prepared at 0.125 mg/mL as 25HC3S sodium salt.
Samples were prepared by pipetting 20 mL of 100% methanol into each vial and mixing well, with sonication and vortexing to fully dissolve the samples for HPLC analysis.
Samples were prepared by pipetting 20 mL of 100% methanol into each vial followed by two rounds of sonication for 30 minutes, with 30 seconds of vortexing before and after each round. Sample aliquots were then centrifuged at 10,000 RPM for 10 minutes and the supernatant collected for HPLC analysis.
Samples were prepared by pipetting 20 mL of 100% methanol into each vial, followed by 5 seconds of vortexing. The undissolved powder in methanol was quantitatively transferred into 200 mL volumetric flasks. The sample vials were rinsed 3 times with methanol, with each rinsate transferred to the 200 mL volumetric flasks. The volumetric flasks were filled to about 90% volume and sonicated for 10 minutes to fully dissolve the powder. The flasks were filled to volume with methanol, mixed well and aliquots collected for HPLC analysis.
HPLC analysis was performed.

[3] = Dynamic vapor sorption (DVS), hygroscopicity; conditions: DVS
Excerpt: Dynamic vapor sorption (DVS) measures the uptake of a vapor (typically water) by a sample when exposed to a changing relative humidity. The loss of water can also be measured as relative humidity is decreased. Hygroscopic materials tend to absorb water more readily than non-hygroscopic. In some cases, hydrates absorb water to create higher-order hydrates (e.g., a monohydrate converting to a dihydrate when exposed to increasingly humid conditions). In some salts of the disclosure, moisture is retained upon exposure in a DVS experiment and little or no weight loss is observed upon heating from room temperature. In such experiments, the hygroscopic nature of the salt under study may indicate the formation of a hydrate from an anhydrate. […] Exemplary methods for collecting DVS data are set forth in Example 26.
Dynamic vapor sorption data was collected on a Surface Measurement System DVS Intrinsic instrument. The samples were not dried prior to analysis. Sorption and desorption data were collected over a range from 5% to 95% RH in 10% RH increments under a nitrogen purge. The equilibrium criteria used for the analyses were 0.001 dm/dt weight change in 5 minutes with a minimum step time of 30 minutes and maximum equilibration time of 180 minutes with a 3 minute data logging interval. Data were not corrected for the initial moisture content of the sample.

[4] = room temperature, listed as crystalline 25HC3S potassium
[5] = 2-8° C., 3 wk, listed as 25HC3S potassium
[6] = 60° C., 1 wk, listed as 25HC3S potassium
[7] = room temperature, listed as crystalline 25HC3S zinc
[8] = 2-8° C., 3 wk, listed as 25HC3S zinc
[9] = 80° C., 3 weeks, listed as 25HC3S Zinc

Solubility in FaSSGF (in words) [1, 4]: low solubility
Solubility in FaSSGF ([1]; as free acid, 1440 min): 2 µg/mL
Solubility in saline / 0.9% sodium chloride (in words) [1, 4]: low solubility
% Impurities, Total [2, 5]: 1.3%
% Impurities, 25-HC [2, 5]: 0.2%
% Impurities, 25-HC [2, 6]: 0.3%
Physical and chemical solid-state stability (comments) ([2]; 60° C., 1 week, listed as 25HC3S Potassium): Stable after 1 week at 60 C.
Assay ([2]; 60° C., 1 wk (after 3 weeks at 2-8° C.), 10080 min, listed as 25HC3S potassium, 10080 min): 103.1 % w/w
% Recovery of 2-8° C./3 wk vs 60° C./1 wk ([2]; 60° C., 1 wk, 10080 min, listed as 25HC3S potassium): 105.4%
% Impurities, Total [2, 6]: 1.6%
Physical and chemical solid-state stability (comments) ([2]; 80° C., 3 weeks, listed as 25HC3S Potassium): totally decomposed after 3 weeks
% Recovery ([2]; 80° C., 3 wk, 30240 min, listed as 25HC3S potassium, 30240 min): 0.0%
Assay ([2]; 80° C., 3 wk, 30240 min, listed as 25HC3S potassium): 0.0 % w/w
% Impurities, Total ([2]; 80° C., 3 wk, listed as 25HC3S potassium): 100%
remaining at 504 h ([2]; solid state, 2-8° C., 3 wk, read-out: Assay): 97.8%
Stability after 1 week at 60° C. (in words) ([2]; solid state, 60° C.): stable
Stability after 3 weeks at 80° C. (in words) ([2]; solid state, 80° C., 3 weeks): totally decomposed
Water uptake (weight gain) up to about 95% relative humidity ([3]; 5% to about 95% RH, listed as crystalline 25HC3S potassium): 2%
Hygroscopicity (in words) ([3]; listed as crystalline 25HC3S potassium): limited hygroscopicity
SMILES: CC(CCCC(C)(C)O)C1CCC2C3CC=C4CC(OS(=O)(=O)O)CCC4(C)C3CCC12C (centres unmarked) [Salt #1]

Solubility in 5% Dextrose ([1]; 5% dextrose, room temperature, as free acid, ND = not detected, detection limit 0.7 μg/mL, 1440 min, listed as 25HC3S zinc): 13 µg/mL
Solubility in ethanol (in words) ([1]; EtOH, room temperature, listed as crystalline 25HC3S zinc): relatively high solubility
Solubility in FaSSGF (in words) [1, 7]: low solubility
Solubility in FaSSIF ([1]; FaSSIF, room temperature, as free acid, 1440 min, listed as 25HC3S zinc): 133 µg/mL
Solubility in FaSSGF ([1]; as free acid): no solubilized drug was detected
Solubility in FeSSIF ([1]; FeSSIF, room temperature, as free acid, 1440 min, listed as 25HC3S zinc): 673 µg/mL
Solubility in ACN ([1]; acetonitrile, room temperature, as free acid, 1440 min, listed as 25HC3S zinc): 100 µg/mL
Solubility in EtOH ([1]; ethanol, room temperature, as free acid, ≥ = did not reach saturation, 1440 min, listed as 25HC3S zinc): 31200 µg/mL
Solubility in IPA ([1]; isopropyl alcohol, room temperature, as free acid, 1440 min, listed as 25HC3S zinc): 3500 µg/mL
Solubility in MeOH ([1]; methanol, room temperature, as free acid, ≥ = did not reach saturation, 1440 min, listed as 25HC3S zinc): 39500 µg/mL
Solubility in saline / 0.9% sodium chloride (in words) [1, 7]: low solubility
Solubility in H2O ([1]; water, room temperature, as free acid, ND = not detected, detection limit 0.7 μg/mL, 1440 min, listed as 25HC3S zinc): 6 µg/mL
Assay ([2]; 2-8° C., 3 wk, 30240 min, listed as 25HC3S zinc): 92.6 % w/w
% Impurities, Total [2, 8]: 0.6%
Overall physical and chemical stability (in words) ([2]; 2-8° C., 60° C., 80° C.): least physically and chemically stable
Overall physical and chemical stability (in words) ([2]; 2-8° C., 60° C., 80° C., listed as zinc): least stable
% Impurities, 25-HC [2, 8]: 0.2%
Physical and chemical solid-state stability (comments) ([2]; 60° C., 1 week, listed as 25HC3S Zinc): Totally decomposed after 1 weck at 60 °C
Assay ([2]; 60° C., 1 wk (after 3 weeks at 2-8° C.), 10080 min, listed as 25HC3S zinc, 10080 min): 0.0 % w/w
% Recovery of 2-8° C./3 wk vs 60° C./1 wk ([2]; 60° C., 1 wk, 10080 min, listed as 25HC3S zinc): 0.0%
% Impurities, Total ([2]; 60° C., 1 wk, listed as 25HC3S zinc): 100.0%
% Recovery ([2]; 80° C., 3 wk, 30240 min, listed as 25HC3S zinc, 30240 min): 0.0%
Assay ([2]; 80° C., 3 wk, 30240 min, listed as 25HC3S zinc): 0.0 % w/w
Stability after 1 week at 60° C. (in words) ([2]; solid state, 60° C.): totally decomposed
Stability after 3 weeks at 80° C. (in words) ([2]; solid state, 80° C., 3 weeks): totally decomposed
Water uptake (change in mass), 25% to 45% RH ([3]; between 25% and 45% relative humidity): about 2.8%
SMILES: CC(CCCC(C)(C)O)C1CCC2C3CC=C4CC(OS(=O)(=O)O)CCC4(C)C3CCC12C (centres unmarked) [Salt #3]
Physical and chemical solid-state stability (comments) [2, 9]: Totally decomposed after 1 weck at 60 °C and after 3 weeks at 80 °C
dissolution of decomposed samples in diluent / degradants observed (comments) [2, 9]: decomposed samples at 3-weeks at 80 °C did not dissolve in the diluent,; also recorded: therefore, no degradants were observed
